The values below come from patent US10512265B2, “Pesticidally active heterocyclic derivatives with sulphur containing substituents” (Syngenta Participations AG, priority 2015, dated 2019).

The test system of data set [1] is Spodoptera littoralis (Egyptian cotton leaf worm). The experiment in a line: Example B2: activity against Spodoptera littoralis, systemic via lettuce grown on treated agar. Particulars: 144 h, test rate 12.5 ppm, in agar, uptake by lettuce roots, Spodoptera eggs, 6 days after infestation, read-out: effect in at least one of the three categories (mortality, anti-feedancy, or growth inhibition). It counts as in vivo. From the text:
Example B2: Activity Against Spodoptera littoralis (Egyptian Cotton Leaf Worm)
Test compounds were applied by pipette from 10′000 ppm DMSO stock solutions into 24-well plates and mixed with agar. Lettuce seeds were placed on the agar and the multi well plate was closed by another plate which contains also agar. After 7 days the roots have absorbed the compound and the lettuce has grown into the lid plate. The lettuce leafs were now cut off into the lid plate. Spodoptera eggs were pipetted through a plastic stencil on a humid gel blotting paper and the plate closed with it.
The samples were assessed for mortality, anti-feedant effect and growth inhibition in comparison to untreated samples 6 days after infestation.

Data set [2] concerns Frankliniella occidentalis (western flower thrips). The experiment in a line: Example B7: activity against Frankliniella occidentalis, sprayed sunflower leaf discs. It counts as in vivo. Particulars: foliar, 168 h, application rate 200 ppm, population of mixed ages, 7 days after infestation. The procedure: Example B7: Activity Against Frankliniella occidentalis (Western Flower Thrips)
Sunflower leaf discs were placed on agar in 24-well microtiter plates and sprayed with aqueous test solutions prepared from […] stock solutions. After drying the leaf discs were infested with a Frankliniella population of mixed ages. The samples were assessed for mortality 7 days after infestation.

For data set [3], the system named is Myzus persicae (green peach aphid). The experiment in a line: Example B5: activity against Myzus persicae, sprayed sunflower leaf discs. It counts as in vivo. Conditions: foliar, 144 h, application rate 200 ppm, aphid population of mixed ages, 6 days after infestation. The procedure: Example B5: Activity Against Myzus persicae (Green Peach Aphid)
Sunflower leaf discs were placed on agar in a 24-well microtiter plate and sprayed with aqueous test solutions prepared from 10′000 ppm DMSO stock solutions. After drying, the leaf discs were infested with an aphid population of mixed ages. The samples were assessed for mortality 6 days after infestation.

The test system of data set [4] is Diabrotica balteata (corn root worm). The experiment in a line: Example B4: activity against Diabrotica balteata, sprayed maize sprouts. It counts as in vivo. Conditions: 96 h, application rate 200 ppm, L2 larvae, 4 days after infestation, read-out: effect in at least one of the two categories (mortality or growth inhibition). As to the method:
Example B4: Activity Against Diabrotica Balteata (Corn Root Worm)
Maize sprouts, placed on an agar layer in 24-well microtiter plates were treated with aqueous test solutions prepared from 10′000 ppm DMSO stock solutions by spraying. After drying, the plates were infested with L2 larvae (6 to 10 per well). The samples were assessed for mortality and growth inhibition in comparison to untreated samples 4 days after infestation.

Data set [5] relates to Spodoptera littoralis (Egyptian cotton leaf worm). In words: Example B1: activity against Spodoptera littoralis, sprayed cotton leaf discs. In kind it is in vivo. Particulars: foliar, 72 h, application rate 200 ppm, L1 larvae, 3 days after infestation, read-out: control of Spodoptera littoralis (at least one of mortality, anti-feedant effect, growth inhibition). The procedure:
Example B1: Activity Against Spodoptera littoralis (Egyptian Cotton Leaf Worm)
Cotton leaf discs were placed on agar in 24-well microtiter plates and sprayed with aqueous test solutions prepared from 10′000 ppm DMSO stock solutions. After drying the leaf discs were infested with five L1 larvae. The samples were assessed for mortality, anti-feedant effect, and growth inhibition in comparison to untreated samples 3 days after infestation. Control of Spodoptera littoralis by a test sample is when at least one of mortality, anti-feedant effect, and growth inhibition is higher than the untreated sample.

Data set [6] concerns Plutella xylostella (diamond back moth). In words: Example B3: activity against Plutella xylostella, treated artificial diet. In kind it is in vivo. Conditions: 120 h, application rate 200 ppm, L2 larvae, 5 days after infestation, read-out: effect in at least one of the two categories (mortality or growth inhibition). The procedure: Example B3: Activity Against Plutella xylostella (Diamond Back Moth)
24-well microtiter plates with artificial diet were treated with aqueous test solutions prepared from 10′000 ppm DMSO stock solutions by pipetting. After drying, the plates were infested with L2 larvae (10 to 15 per well). The samples were assessed for mortality and growth inhibition in comparison to untreated samples 5 days after infestation.

Data set [7] concerns Myzus persicae (green peach aphid). The experiment in a line: Example B6: activity against Myzus persicae, roots of pea seedlings in test solution. In kind it is in vivo. Particulars: 144 h, test rate 24 ppm, roots of infested pea seedlings in test solution, 6 days. The procedure:
Example B6: Activity Against Myzus persicae (Green Peach Aphid)
Roots of pea seedlings infested with an aphid population of mixed ages were placed directly in the aqueous test solutions prepared from 10′000 DMSO stock solutions. The samples were assessed for mortality 6 days after placing seedlings in test solutions.

The test system of data set [8] is Euschistus heros (neotropical brown stink bug). In words: Example B9: activity against Euschistus heros, sprayed soybean leaf. It counts as in vivo. Conditions: 120 h, application rate 200 ppm, N-2 nymphs, 5 days after infestation, read-out: effect in at least one of the two categories (mortality or growth inhibition). The procedure:
Example B9: Activity Against Euschistus heros(Neotropical Brown Stink Bug)
Soybean leaf on agar in 24-well microtiter plates were sprayed with aqueous test solutions prepared from 10′000 ppm DMSO stock solutions. After drying the leaf were infested with N-2 nymphs. The samples were assessed for mortality and growth inhibition in comparison to untreated samples 5 days after infestation.

Data set [9] deals with Aedes aegypti (yellow fever mosquito). In words: Example B11: activity against Aedes aegypti, dry deposits in tissue culture plates. Particulars: 200 ppm in ethanol, dry deposit, adult females, after 48 h and/or 24 h. It counts as in vivo. As to the method:
Example B11: Activity Against Aedes Aegypti (Yellow Fever Mosquito)
Test solutions, at an application rate of 200 ppm in ethanol, were applied to 12-well tissue culture plates. Once the deposits were dry, five, two to five days old adult female Aedes aegypti were added to each well, and sustained with a 10% sucrose solution in a cotton wool plug. Assessment of knockdown was made one hour after introduction, and mortality was assessed at 24 and 48 hours after introduction.

In data set [10] the test system is Bemisia tabaci (cotton white fly). In words: Example B8: activity against Bemisia tabaci, sprayed cotton leaf discs. Conditions: foliar, 144 h, application rate 200 ppm, adult white flies, 6 days after incubation. It counts as in vivo. As to the method: Example B8: Activity Against Bemisia tabaci (Cotton White Fly)
Cotton leaf discs were placed on agar in 24-well microtiter plates and sprayed with aqueous test solutions prepared from 10′000 ppm DMSO stock solutions. After drying the leaf discs were infested with adult white flies. The samples were checked for mortality 6 days after incubation.

As to `CCS(=O)(=O)c1cc(-c2ccccc2)cnc1-c1ncc(-c2ccc(C(F)(F)F)nc2)n1C` [Compound P6], the percent control (mortality, anti-feedancy or growth inhibition) at 12.5 ppm in data set [1] was at least 80%. Further, the mortality at 200 ppm in data set [2], in [3] and in [5] was at least 80% in each case. Besides, the percent effect (mortality or growth inhibition) at 200 ppm in data set [4] and in data set [6] was at least 80% in each case.
Take `CCS(=O)(=O)c1cc(-c2ncccn2)cnc1-c1ncc(-c2cncc(C(F)(F)F)c2)n1C` [Compound P10]: the percent control (mortality, anti-feedancy or growth inhibition) at 12.5 ppm in data set [1] is at least 80%. The mortality at 200 ppm in data set [2], in data set [3] and in data set [5] was at least 80% each time. The mortality (as a rule, the percentage killed) at 24 ppm in data set [7] is at least 80%. The percent effect (mortality or growth inhibition) at 200 ppm in data set [4], in data set [8] and in data set [6] was at least 80% throughout.
On to `CCS(=O)(=O)c1cc(-c2cccc(F)c2)cnc1-c1ncc(-c2cnc(C(F)(F)F)nc2)n1C` [Compound P17], for which the melting point (in general, the temperature, or range, at which the solid turns liquid) was in the range of 193 to 195 °C.
Consider `CCS(=O)(=O)c1cc(-c2ccc(Cl)cc2)cnc1-c1ncc(-c2ccc(SC(F)(F)F)cc2)n1C` [Compound P7], for which the pest or weed control (as a rule, the degree to which the test organism was suppressed or injured, in per cent) at 200 ppm in data set [9] was at least 80%. Also, the percent effect (mortality or growth inhibition) at 200 ppm in data set [4] and in data set [6] was at least 80% throughout. Besides, the mortality at 200 ppm in data set [5] is at least 80%.
As for `CCS(=O)(=O)c1cc(-c2ncccn2)cnc1-c1ncc(-c2cnc(C(F)(F)F)nc2)n1C` [Compound P15], the melting point is 231 to 233 °C.
On the same count and under the same terms, as for `CCS(=O)(=O)c1cc(-c2cccc(F)c2)cnc1-c1ncc(-c2ccc(C(F)(F)F)nc2)n1C` [Compound P16], the figure is 170 to 172 °C.
Consider `CCS(=O)(=O)c1cc(-c2ccc(C(F)(F)F)cc2)cnc1-c1ncc(-c2ccc(C(F)(F)F)cc2)n1C` [Compound P2, 3-ethylsulfonyl-2-[1-methyl-5-[4-(trifluoromethyl)phenyl]imidazol-2-yl]-5-[4-(trifluoromethyl)phenyl]pyridine], for which the mortality at 200 ppm in data set [2] and in data set [5] was at least 80% in each case. For the same compound, in [9], the pest or weed control at 200 ppm was at least 80%. In addition, the percent effect (mortality or growth inhibition) at 200 ppm in data set [4] and in data set [6] was at least 80% throughout.
Consider `CCS(=O)(=O)c1cc(-c2ccc(F)cc2)cnc1-c1ncc(-c2ccc(F)cc2)n1C` [Compound P4], for which the percent control (mortality, anti-feedancy or growth inhibition) at 12.5 ppm in [1] is at least 80%. Further, the mortality at 200 ppm in data set [10], in data set [3] and in data set [5] was at least 80% in each case. For the same compound, the percent effect (mortality or growth inhibition) at 200 ppm in [4] and in data set [6] was at least 80% throughout.
Consider `CCS(=O)(=O)c1cc(-c2ccc(Cl)cc2)cnc1-c1ncc(-c2ccc(S(=O)(=O)C(F)(F)F)cc2)n1C` [Compound P9], for which, in data set [9], the pest or weed control at 200 ppm is at least 80%. The percent effect (mortality or growth inhibition) at 200 ppm in data set [4] and in [6] was at least 80% in each case. In addition, in data set [5], the mortality at 200 ppm is at least 80%.
For `CCS(=O)(=O)c1cc(-c2ncc(Cl)cn2)cnc1-c1ncc(-c2cnc(C(F)(F)F)nc2)n1C` [Compound P14], the melting point is 224 to 226 °C.
For the compound `CCS(=O)(=O)c1cc(-c2ccc(Cl)cc2)cnc1-c1ncc(-c2ccc(C(F)(F)F)cc2)n1C` [Compound P12], the mortality at 200 ppm in [2] and in data set [5] was at least 80% throughout. In [9], this compound showed a pest or weed control at 200 ppm of at least 80%. The percent effect (mortality or growth inhibition) at 200 ppm in [4] and in [6] was at least 80% throughout.
Compound `CCS(=O)(=O)c1cc(-c2cccc(F)c2)cnc1-c1ncc(-c2cncc(C(F)(F)F)c2)n1C` [Compound P18] registered a melting point of 155 to 157 °C.
On to `CCS(=O)(=O)c1cc(-c2ccc(Cl)cc2)cnc1-c1ncc(-c2cccc(SC(F)(F)F)c2)n1C` [Compound P13], for which the percent effect (mortality or growth inhibition) at 200 ppm in [4] and in data set [6] was at least 80% in each case. Further, the mortality at 200 ppm in data set [5] was at least 80%.
Consider `CCS(=O)(=O)c1cc(-c2ncccn2)cnc1-c1ncc(-c2ccc(C(F)(F)F)nc2)n1C` [Compound P8], for which, in [1], the percent control (mortality, anti-feedancy or growth inhibition) at 12.5 ppm is at least 80%. The mortality at 200 ppm in data set [2], in data set [3] and in [5] was at least 80% each time. The same compound showed a mortality at 24 ppm in [7] of at least 80%. In addition, the percent effect (mortality or growth inhibition) at 200 ppm in data set [4], in [8] and in [6] was at least 80% each time.
For the compound `CCS(=O)(=O)c1cc(-c2ccc(Cl)cc2)cnc1-c1ncc(-c2ccc(C(F)(F)F)nc2)n1C` [Compound P5], the mortality at 200 ppm in data set [2], in data set [3] and in data set [5] was at least 80% in each case. The pest or weed control at 200 ppm in [9] is at least 80%. Moreover, the percent effect (mortality or growth inhibition) at 200 ppm in data set [4], in data set [8] and in data set [6] was at least 80% throughout.
Turning to `CCS(=O)(=O)c1cc(-c2ncc(Cl)cn2)cnc1-c1ncc(-c2ccc(C(F)(F)F)nc2)n1C` [Compound P11], in [1], the percent control (mortality, anti-feedancy or growth inhibition) at 12.5 ppm was at least 80%. Besides, the mortality at 200 ppm in data set [3] and in data set [5] was at least 80% each time. For the same compound, in [9], the pest or weed control at 200 ppm was at least 80%. The percent effect (mortality or growth inhibition) at 200 ppm in [4], in [8] and in data set [6] was at least 80% in each case.
As for `CCS(=O)(=O)c1cc(-c2ccc(C(F)(F)F)cc2)cnc1-c1ncc(-c2ccc(C(F)(F)F)nc2)n1C` [Compound P1, 3-ethylsulfonyl-2-[1-methyl-5-[6-(trifluoromethyl)-3-pyridyl]imidazol-2-yl]-5-[4-(trifluoromethyl)phenyl]pyridine], the mortality at 200 ppm in data set [2] and in data set [5] was at least 80% throughout. For the same compound, the pest or weed control at 200 ppm in data set [9] is at least 80%. For the same compound, the percent effect (mortality or growth inhibition) at 200 ppm in data set [4], in data set [8] and in data set [6] was at least 80% each time.
